Experimental data published in ChEMBL document CHEMBL4507276 (2021).

Columns and labels:
[1] = biological target: Estrogen receptor (Homo sapiens) (UniProt P03372); experiment: ER_ALPHA_AGON Cerep selectivity data (BI); conditions: filed as agonist, Compound concentration 20.0 uM
[2] = biological target: Sodium-dependent noradrenaline transporter (Homo sapiens) (UniProt P23975); experiment: NEUP/H Cerep selectivity data (BI); conditions: Compound concentration 20.0 uM
[3] = biological target: Vasopressin V1a receptor (Homo sapiens) (UniProt P37288); experiment: V1A/HUM Cerep selectivity data (BI); conditions: Compound concentration 20.0 uM
[4] = biological target: Gamma-aminobutyric acid receptor subunit alpha-1 (Rattus norvegicus) (UniProt P62813); experiment: GABAA MUSCIMOL CENT Eurofins-Panlabs selectivity data (BI); conditions: Compound concentration 10.0 uM
[5] = biological target: Sodium- and chloride-dependent GABA transporter 1 (Rattus norvegicus) (UniProt P23978); experiment: GABATRANS/RA Eurofins-Panlabs selectivity data (BI); conditions: Compound concentration 10.0 uM
[6] = biological target: T1, Activin receptor type-1 (Homo sapiens) (UniProt Q04771); experiment: ACVR1 Invitrogen selectivity data (BI); conditions: Compound concentration 3.0 uM
T1 sequence (whole entry): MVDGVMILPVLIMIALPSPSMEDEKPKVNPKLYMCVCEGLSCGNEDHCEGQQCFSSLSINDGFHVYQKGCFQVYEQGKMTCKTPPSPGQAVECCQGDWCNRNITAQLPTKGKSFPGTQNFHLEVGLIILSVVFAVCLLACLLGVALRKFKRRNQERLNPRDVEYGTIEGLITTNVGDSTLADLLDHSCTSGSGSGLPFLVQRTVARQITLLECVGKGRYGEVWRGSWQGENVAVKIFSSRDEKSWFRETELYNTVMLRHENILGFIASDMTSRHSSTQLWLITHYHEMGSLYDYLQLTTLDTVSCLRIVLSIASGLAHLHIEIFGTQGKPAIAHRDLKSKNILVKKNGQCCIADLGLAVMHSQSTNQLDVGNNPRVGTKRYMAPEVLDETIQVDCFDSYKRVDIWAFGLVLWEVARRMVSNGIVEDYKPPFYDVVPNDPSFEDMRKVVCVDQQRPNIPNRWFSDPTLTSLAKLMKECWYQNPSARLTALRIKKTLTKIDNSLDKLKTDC

[7] = biological target: RAC-alpha serine/threonine-protein kinase (Homo sapiens) (UniProt P31749); experiment: AKT1 Invitrogen selectivity data (BI); conditions: Compound concentration 3.0 uM
[8] = biological target: Calcium/calmodulin-dependent protein kinase type 1 (Homo sapiens) (UniProt Q14012); experiment: CAMK1_A Invitrogen selectivity data (BI); conditions: Compound concentration 3.0 uM
[9] = biological target: Cyclin-dependent kinase 5/CDK5 activator 1 (Homo sapiens) (UniProt Q00535+Q15078); experiment: CDK5/P35 Invitrogen selectivity data (BI); format: protein-complex assay; conditions: Compound concentration 3.0 uM
[10] = biological target: Casein kinase I isoform delta (Homo sapiens) (UniProt P48730); experiment: CSNK1D Invitrogen selectivity data (BI); conditions: Compound concentration 3.0 uM
[11] = biological target: Casein kinase II subunit alpha' (Homo sapiens) (UniProt P19784); experiment: CSNK2A2 Invitrogen selectivity data (BI); conditions: Compound concentration 3.0 uM
[12] = biological target: T2, Serine/threonine-protein kinase DCLK2 (Homo sapiens) (UniProt Q8N568); experiment: DCAMKL2 Invitrogen selectivity data (BI); conditions: Compound concentration 3.0 uM
T2 sequence (whole entry): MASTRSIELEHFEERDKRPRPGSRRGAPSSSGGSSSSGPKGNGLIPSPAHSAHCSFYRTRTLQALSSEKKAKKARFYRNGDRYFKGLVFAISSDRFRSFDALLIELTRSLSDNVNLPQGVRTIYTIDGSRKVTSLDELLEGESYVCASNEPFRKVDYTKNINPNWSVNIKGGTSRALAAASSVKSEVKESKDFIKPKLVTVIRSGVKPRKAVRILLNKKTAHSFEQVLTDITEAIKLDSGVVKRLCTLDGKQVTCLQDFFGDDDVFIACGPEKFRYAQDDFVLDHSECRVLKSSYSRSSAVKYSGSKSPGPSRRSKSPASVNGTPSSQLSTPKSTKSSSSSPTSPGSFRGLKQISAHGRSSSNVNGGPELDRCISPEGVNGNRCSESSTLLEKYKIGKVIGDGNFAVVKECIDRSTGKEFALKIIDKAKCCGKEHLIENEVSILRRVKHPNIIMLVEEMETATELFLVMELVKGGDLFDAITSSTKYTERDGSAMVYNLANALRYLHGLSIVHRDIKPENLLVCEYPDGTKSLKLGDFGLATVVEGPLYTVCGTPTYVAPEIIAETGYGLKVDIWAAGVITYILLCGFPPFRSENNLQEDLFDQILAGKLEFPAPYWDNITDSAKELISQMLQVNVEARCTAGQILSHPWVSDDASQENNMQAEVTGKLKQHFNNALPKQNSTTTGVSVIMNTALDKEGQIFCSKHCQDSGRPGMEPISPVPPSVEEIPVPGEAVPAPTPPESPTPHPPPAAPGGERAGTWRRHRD

[13] = biological target: T3, Myotonin-protein kinase (Homo sapiens) (UniProt Q09013); experiment: DMPK Invitrogen selectivity data (BI); conditions: Compound concentration 3.0 uM
T3 sequence (whole entry): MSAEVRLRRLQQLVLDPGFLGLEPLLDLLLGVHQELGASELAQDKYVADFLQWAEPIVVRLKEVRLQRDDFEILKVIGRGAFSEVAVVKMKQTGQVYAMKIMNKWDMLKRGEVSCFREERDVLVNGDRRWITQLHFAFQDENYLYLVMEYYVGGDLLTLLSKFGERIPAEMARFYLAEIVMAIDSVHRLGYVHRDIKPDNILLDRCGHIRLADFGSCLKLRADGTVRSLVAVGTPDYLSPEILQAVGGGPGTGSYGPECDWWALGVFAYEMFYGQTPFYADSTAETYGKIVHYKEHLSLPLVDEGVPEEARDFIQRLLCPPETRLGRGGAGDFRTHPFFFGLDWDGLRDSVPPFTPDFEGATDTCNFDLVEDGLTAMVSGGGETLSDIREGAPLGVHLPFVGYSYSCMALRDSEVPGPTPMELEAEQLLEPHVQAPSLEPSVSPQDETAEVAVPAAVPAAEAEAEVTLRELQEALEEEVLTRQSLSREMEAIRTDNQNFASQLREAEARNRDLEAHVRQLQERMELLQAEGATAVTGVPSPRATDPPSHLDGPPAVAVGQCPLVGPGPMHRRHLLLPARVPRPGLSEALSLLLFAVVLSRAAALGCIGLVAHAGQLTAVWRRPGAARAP

[14] = biological target: Fibroblast growth factor receptor 4 (Homo sapiens) (UniProt P22455); experiment: FGFR4 Invitrogen selectivity data (BI); conditions: Compound concentration 3.0 uM
[15] = biological target: LIM domain kinase 2 (Homo sapiens) (UniProt P53671); experiment: LIMK2 Invitrogen selectivity data (BI); conditions: Compound concentration 3.0 uM
[16] = biological target: Tyrosine-protein kinase Lyn (Homo sapiens) (UniProt P07948); experiment: LYN A Invitrogen selectivity data (BI); conditions: Compound concentration 3.0 uM
[17] = biological target: Serine/threonine-protein kinase MARK1 (Homo sapiens) (UniProt Q9P0L2); experiment: MARK1 Invitrogen selectivity data (BI); conditions: Compound concentration 3.0 uM
[18] = biological target: Myosin light chain kinase, smooth muscle (Homo sapiens) (UniProt Q15746); experiment: MYLK Invitrogen selectivity data (BI); conditions: Compound concentration 3.0 uM
[19] = biological target: Protein-tyrosine kinase 2-beta (Homo sapiens) (UniProt Q14289); experiment: PTK2B Invitrogen selectivity data (BI); conditions: Compound concentration 3.0 uM
[20] = biological target: SRSF protein kinase 3 (Homo sapiens) (UniProt Q9UPE1); experiment: STK23 Invitrogen selectivity data (BI); conditions: Compound concentration 3.0 uM

Measured: residual activity

Sequence of RAC-alpha serine/threonine-protein kinase (Homo sapiens) (P31749 whole entry): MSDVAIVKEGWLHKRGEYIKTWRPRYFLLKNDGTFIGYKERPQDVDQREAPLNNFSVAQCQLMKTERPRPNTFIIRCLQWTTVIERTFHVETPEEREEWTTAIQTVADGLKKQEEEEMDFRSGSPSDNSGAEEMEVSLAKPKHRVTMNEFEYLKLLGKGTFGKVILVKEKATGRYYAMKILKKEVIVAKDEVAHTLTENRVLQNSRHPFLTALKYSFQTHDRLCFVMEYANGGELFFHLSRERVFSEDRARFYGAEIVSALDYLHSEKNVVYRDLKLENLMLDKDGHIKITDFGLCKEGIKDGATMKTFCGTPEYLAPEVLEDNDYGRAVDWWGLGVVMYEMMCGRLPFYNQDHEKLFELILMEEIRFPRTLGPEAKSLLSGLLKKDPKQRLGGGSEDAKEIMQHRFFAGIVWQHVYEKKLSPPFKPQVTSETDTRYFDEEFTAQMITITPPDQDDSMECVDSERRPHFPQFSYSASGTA
Sequence of LIM domain kinase 2 (Homo sapiens) (P53671 whole entry, looked up, the tested form may be a part): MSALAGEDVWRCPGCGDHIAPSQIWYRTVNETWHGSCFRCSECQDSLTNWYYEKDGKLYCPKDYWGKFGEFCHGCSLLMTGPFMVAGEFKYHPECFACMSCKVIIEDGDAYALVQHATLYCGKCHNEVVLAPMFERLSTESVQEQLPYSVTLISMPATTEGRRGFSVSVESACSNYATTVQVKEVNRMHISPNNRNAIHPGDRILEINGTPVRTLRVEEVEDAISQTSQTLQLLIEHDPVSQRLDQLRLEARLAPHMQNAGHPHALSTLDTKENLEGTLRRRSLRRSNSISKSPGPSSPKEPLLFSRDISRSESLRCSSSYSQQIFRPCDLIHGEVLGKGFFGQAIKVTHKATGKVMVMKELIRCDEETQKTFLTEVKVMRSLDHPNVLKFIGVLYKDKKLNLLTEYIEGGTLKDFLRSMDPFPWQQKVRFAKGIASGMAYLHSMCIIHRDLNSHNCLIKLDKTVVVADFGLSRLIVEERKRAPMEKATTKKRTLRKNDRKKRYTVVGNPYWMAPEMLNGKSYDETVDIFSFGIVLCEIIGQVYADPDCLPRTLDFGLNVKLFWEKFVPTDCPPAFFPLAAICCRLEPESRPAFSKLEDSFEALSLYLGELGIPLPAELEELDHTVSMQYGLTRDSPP
Sequence of Serine/threonine-protein kinase MARK1 (Homo sapiens) (Q9P0L2 whole entry, looked up): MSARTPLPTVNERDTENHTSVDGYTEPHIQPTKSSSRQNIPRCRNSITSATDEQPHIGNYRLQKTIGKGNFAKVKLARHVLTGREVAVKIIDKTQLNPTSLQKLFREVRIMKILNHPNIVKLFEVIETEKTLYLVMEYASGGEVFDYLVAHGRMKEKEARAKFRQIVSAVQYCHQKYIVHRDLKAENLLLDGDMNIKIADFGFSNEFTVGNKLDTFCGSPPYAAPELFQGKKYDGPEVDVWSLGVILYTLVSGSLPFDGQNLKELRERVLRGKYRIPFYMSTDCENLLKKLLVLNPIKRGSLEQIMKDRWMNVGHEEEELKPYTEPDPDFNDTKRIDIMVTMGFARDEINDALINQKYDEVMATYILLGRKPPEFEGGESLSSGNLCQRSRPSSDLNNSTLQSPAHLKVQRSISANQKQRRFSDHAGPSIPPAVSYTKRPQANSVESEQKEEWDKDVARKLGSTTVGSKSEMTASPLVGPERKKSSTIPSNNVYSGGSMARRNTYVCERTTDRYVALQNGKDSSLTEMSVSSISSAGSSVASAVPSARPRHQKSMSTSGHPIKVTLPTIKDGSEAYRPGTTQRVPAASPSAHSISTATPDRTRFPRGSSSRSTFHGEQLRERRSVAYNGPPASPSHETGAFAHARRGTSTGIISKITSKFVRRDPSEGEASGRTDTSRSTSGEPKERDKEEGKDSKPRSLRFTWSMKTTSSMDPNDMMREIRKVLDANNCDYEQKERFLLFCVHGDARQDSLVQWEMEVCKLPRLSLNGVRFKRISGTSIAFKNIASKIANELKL
Sequence of Estrogen receptor (Homo sapiens) (P03372 whole entry): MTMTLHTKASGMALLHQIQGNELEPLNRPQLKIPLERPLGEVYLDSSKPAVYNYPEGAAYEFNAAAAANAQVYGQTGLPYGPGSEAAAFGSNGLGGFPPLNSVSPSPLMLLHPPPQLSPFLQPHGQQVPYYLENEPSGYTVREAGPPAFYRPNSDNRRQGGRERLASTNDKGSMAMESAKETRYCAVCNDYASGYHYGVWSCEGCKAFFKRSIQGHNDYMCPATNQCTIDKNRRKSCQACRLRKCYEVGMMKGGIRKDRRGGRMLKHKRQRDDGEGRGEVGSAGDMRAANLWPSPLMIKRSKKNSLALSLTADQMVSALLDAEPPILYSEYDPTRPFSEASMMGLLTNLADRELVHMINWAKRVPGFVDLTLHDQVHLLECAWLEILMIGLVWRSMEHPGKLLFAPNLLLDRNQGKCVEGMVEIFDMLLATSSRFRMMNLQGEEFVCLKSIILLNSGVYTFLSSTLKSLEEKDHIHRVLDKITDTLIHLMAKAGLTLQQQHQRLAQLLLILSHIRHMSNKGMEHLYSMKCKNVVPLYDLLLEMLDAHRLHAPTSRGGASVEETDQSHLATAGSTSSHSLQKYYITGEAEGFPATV
Sequence of Sodium-dependent noradrenaline transporter (Homo sapiens) (P23975 whole entry): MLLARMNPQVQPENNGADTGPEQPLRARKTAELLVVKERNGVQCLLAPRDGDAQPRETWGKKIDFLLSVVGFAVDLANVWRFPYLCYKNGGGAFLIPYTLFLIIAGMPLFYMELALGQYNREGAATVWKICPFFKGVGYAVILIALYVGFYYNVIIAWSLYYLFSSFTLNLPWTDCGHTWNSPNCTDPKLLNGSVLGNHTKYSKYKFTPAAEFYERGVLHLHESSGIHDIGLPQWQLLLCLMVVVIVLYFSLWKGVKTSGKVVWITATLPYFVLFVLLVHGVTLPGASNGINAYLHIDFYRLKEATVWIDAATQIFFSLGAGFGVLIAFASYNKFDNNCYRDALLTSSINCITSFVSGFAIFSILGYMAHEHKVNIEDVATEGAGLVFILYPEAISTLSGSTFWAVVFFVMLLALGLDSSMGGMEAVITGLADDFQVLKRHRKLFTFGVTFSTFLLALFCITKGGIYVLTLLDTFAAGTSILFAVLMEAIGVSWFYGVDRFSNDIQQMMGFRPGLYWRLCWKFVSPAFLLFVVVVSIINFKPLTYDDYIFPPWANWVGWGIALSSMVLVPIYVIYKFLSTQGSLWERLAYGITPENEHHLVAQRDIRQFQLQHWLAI
Sequence of Tyrosine-protein kinase Lyn (Homo sapiens) (P07948 2-512 limits assumed): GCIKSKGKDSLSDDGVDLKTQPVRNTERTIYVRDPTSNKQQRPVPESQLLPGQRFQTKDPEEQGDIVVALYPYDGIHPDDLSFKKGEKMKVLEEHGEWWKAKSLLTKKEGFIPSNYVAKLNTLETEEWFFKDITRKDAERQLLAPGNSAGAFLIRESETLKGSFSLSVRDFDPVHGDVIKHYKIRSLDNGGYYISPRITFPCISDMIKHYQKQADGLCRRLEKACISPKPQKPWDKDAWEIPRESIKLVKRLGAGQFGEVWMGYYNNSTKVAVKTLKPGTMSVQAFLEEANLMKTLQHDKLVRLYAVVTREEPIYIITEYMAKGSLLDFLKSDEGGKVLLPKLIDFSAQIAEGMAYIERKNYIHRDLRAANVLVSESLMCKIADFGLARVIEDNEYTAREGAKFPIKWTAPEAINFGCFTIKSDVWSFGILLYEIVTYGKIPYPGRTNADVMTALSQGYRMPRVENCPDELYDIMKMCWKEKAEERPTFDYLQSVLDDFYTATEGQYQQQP
Sequence of Protein-tyrosine kinase 2-beta (Homo sapiens) (Q14289 whole entry, looked up): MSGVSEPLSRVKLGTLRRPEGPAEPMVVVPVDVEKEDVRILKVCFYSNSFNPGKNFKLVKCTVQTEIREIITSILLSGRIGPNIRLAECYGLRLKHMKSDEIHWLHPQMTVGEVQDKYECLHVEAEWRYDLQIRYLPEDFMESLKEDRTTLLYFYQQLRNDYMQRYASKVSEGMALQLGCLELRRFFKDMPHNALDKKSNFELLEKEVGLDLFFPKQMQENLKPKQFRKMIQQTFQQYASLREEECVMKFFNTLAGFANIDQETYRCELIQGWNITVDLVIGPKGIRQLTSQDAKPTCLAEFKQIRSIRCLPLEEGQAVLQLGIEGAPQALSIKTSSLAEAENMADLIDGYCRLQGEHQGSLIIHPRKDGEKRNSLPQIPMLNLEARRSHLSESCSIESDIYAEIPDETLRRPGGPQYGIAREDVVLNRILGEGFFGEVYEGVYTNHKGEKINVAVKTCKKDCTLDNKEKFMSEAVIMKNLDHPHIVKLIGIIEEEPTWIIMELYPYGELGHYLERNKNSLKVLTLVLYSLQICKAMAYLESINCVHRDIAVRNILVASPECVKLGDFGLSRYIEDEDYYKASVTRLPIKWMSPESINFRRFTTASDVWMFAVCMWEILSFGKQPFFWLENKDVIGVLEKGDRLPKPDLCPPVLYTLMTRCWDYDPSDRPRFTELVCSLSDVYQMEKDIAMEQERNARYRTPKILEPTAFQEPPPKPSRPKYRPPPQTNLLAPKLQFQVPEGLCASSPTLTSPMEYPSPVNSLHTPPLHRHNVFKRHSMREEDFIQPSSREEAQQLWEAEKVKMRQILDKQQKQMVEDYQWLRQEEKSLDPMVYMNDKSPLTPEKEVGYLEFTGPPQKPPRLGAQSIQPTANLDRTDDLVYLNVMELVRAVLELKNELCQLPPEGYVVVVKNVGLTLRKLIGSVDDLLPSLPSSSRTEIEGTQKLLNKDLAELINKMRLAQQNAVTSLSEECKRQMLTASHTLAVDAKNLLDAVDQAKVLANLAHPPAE
Sequence of Casein kinase II subunit alpha' (Homo sapiens) (P19784 whole entry, looked up): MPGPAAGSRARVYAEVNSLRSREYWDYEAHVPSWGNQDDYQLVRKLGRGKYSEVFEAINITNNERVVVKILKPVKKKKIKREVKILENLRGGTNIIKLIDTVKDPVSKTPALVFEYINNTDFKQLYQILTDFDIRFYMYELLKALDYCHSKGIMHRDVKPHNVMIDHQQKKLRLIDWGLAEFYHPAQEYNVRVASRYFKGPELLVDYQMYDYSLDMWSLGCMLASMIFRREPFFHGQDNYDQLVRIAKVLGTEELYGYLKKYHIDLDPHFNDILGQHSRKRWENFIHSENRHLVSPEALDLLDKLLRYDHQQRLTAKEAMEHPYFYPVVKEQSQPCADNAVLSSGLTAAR

CN(C)C(=O)Cn1cc(-c2nc([C@@](C)(c3ccc(-c4cnc(N)nc4)cc3)C3CC3)no2)cn1 [BI 665915]
inactive: [1] 96% | [2] 94% | [3] 50% | [4] 100% | [5] 82% | [6] 79% | [7] 99% | [8] 102% | [9] 100% | [10] 97% | [11] 94.5% | [12] 97% | [13] 100% | [14] 96.5% | [15] 89% | [16] 93% | [17] 98% | [18] 100% | [19] 86% | [20] 96.5%
